The record followed here is PubChem BioAssay AID2060327 (Molecular Pharmacology Branch, DTP, NCI, 2025).

In the assay the test system is PC-3 multi-cell spheroids, viability. As to the kind of experiment: Anticancer human tumor PC-3 cell line growth inhibition [IpAb].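 On all read-outs here: spheroids exposed to compounds for 7 days before readout.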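 On viability, T/C: 100% = DMSO vehicle control wells.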 The settings on record: for viability, T/C: stronger effect = lower value. An outline of the steps:
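Combinations with ipatasertib or abemaciclib were tested on tumour spheroids holding HUVEC (25%) and MSC (15%) alongside 60% malignant cells. Top concentration was at or near clinical Cmax (10 microM if undefined), descending in half-log steps.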

Setting [1] is: curve of first compound, second compound 0.1 µM.
[2] abbreviates: curve of first compound, second compound 0.316 µM.
Where [3] appears, read: curve of first compound, second compound 1 µM.
[4] abbreviates: curve of first compound, second compound 3.16 µM.
[5] abbreviates: curve of first compound, second compound 10 µM.
[6] abbreviates: second compound 0.1 µM, first compound 0.0316 µM.
Setting [7] is: second compound 0.1 µM, first compound 0.1 µM.
Where [8] appears, read: second compound 0.1 µM, first compound 0.316 µM.
Setting [9] is: second compound 0.1 µM, first compound 1 µM.
Where [10] appears, read: second compound 0.1 µM, first compound 3.16 µM.
[11] abbreviates: second compound 0.1 µM, first compound 10 µM.
Setting [12] is: second compound 0.316 µM, first compound 0.0316 µM.
Where [13] appears, read: second compound 0.316 µM, first compound 0.1 µM.
Setting [14] is: second compound 0.316 µM, first compound 0.316 µM.
Setting [15] is: second compound 0.316 µM, first compound 1 µM.
Setting [16] is: second compound 0.316 µM, first compound 3.16 µM.
Where [17] appears, read: second compound 0.316 µM, first compound 10 µM.
Setting [18] is: second compound 1 µM, first compound 0.0316 µM.
[19] abbreviates: second compound 1 µM, first compound 0.1 µM.
The mark [20] stands for this setting: second compound 1 µM, first compound 0.316 µM.
[21] abbreviates: second compound 1 µM, first compound 1 µM.
Setting [22] is: second compound 1 µM, first compound 3.16 µM.
Setting [23] is: second compound 1 µM, first compound 10 µM.
[24] abbreviates: second compound 3.16 µM, first compound 0.0316 µM.
Where [25] appears, read: second compound 3.16 µM, first compound 0.1 µM.
Where [26] appears, read: second compound 3.16 µM, first compound 0.316 µM.
The mark [27] stands for this setting: second compound 3.16 µM, first compound 1 µM.
Where [28] appears, read: second compound 3.16 µM, first compound 3.16 µM.
Setting [29] is: second compound 3.16 µM, first compound 10 µM.
The mark [30] stands for this setting: second compound 10 µM, first compound 0.0316 µM.
Where [31] appears, read: second compound 10 µM, first compound 0.1 µM.
The mark [32] stands for this setting: second compound 10 µM, first compound 0.316 µM.
The mark [33] stands for this setting: second compound 10 µM, first compound 1 µM.
Where [34] appears, read: second compound 10 µM, first compound 3.16 µM.
The mark [35] stands for this setting: second compound 10 µM, first compound 10 µM.

“And” between values parts separate entries of the source, which are not always exact repeats. Equal entries are not always repeated.

In the case of `Cn1nccc1Nc1nccc(-c2ccn(C(CO)c3ccc(Cl)c(F)c3)c(=O)c2)n1` (stereo unspecified) + CC(C)NCC(C(=O)N1CCN(c2ncnc3c2C(C)CC3O)CC1)c1ccc(Cl)cc1, the IC50 under setting [1] was over 10000 nM; the IC50 under setting [2] is under 31.6 nM; the IC50 under setting [3] is under 31.6 nM; the 50% inhibitory concentration (IC50) under setting [4] is under 31.6 nM; the 50% inhibitory concentration (IC50) under setting [5] is under 31.6 nM. Also, the viability, T/C by setting is: under setting [6], 76.7%; under setting [7], 77.3%; under setting [8], 83.1%; under setting [9], 105%; under setting [10], 127%; under setting [11], 104%. Besides, the viability, T/C under setting [12] was 42.8%; the viability, T/C under setting [13] is 43.8%; the viability, T/C under setting [14] is 41.9%; the viability, T/C under setting [15] is 48%; the viability, T/C under setting [16] was 88.1%; the viability, T/C under setting [17] is 76.9%. Further, the viability, T/C was 20.4% under setting [18]; 24.2% under setting [19]; 27.2% under setting [20]; 34.5% under setting [21]; 59.1% under setting [22]; 34.3% under setting [23]. Also, the viability, T/C is, setting by setting: under setting [24], 14.2%; under setting [25], 15.4%; under setting [26], 15.1%; under setting [27], 19.7%; under setting [28], 23.4%; under setting [29], 13.8%. The viability, T/C reads like this: under setting [30], 12.7%; under setting [31], 13.3%; under setting [32], 12.2%; under setting [33], 14.3%; under setting [34], 17.4%; under setting [35], 10.8%.
For the molecule `COc1c(OCCCN2CCOCC2)ccc2c3n(c(=NC(=O)c4cnc(N)nc4)nc12)CCN3`, the viability, T/C is 97.6% and 101% (compound 0.00316 µM); 79% and 99.4% (compound 0.01 µM); 47.7% and 104% (compound 0.0316 µM); 21.7% and 69.3% (compound 0.1 µM); 6.8% and 11.9% (compound 0.316 µM); 5.07% and 9.47% (compound 1 µM). In addition, the IC50 (curve of compound) was 29.2 nM and 146 nM.
On to `CC1(C)CCC(CN2CCN(c3ccc(C(=O)NS(=O)(=O)c4ccc(NCC5CCOCC5)c([N+](=O)[O-])c4)c(Oc4cnc5[nH]ccc5c4)c3)CC2)=C(c2ccc(Cl)cc2)C1` + CCN1CCN(Cc2ccc(Nc3ncc(F)c(-c4cc(F)c5nc(C)n(C(C)C)c5c4)n3)nc2)CC1, for which the IC50 (curve of first compound, second compound 0.01 µM) came out at 5520 nM; the IC50 (curve of first compound, second compound 0.0316 µM) amounted to 4540 nM; the IC50 under setting [1] was determined as 4190 nM; the IC50 under setting [2] was found to be 3980 nM; the IC50 under setting [3] was 1280 nM. The viability, T/C was 102% (second compound 0.01 µM, first compound 0.0316 µM); 101% (second compound 0.01 µM, first compound 0.1 µM); 107% (second compound 0.01 µM, first compound 0.316 µM); 98.1% (second compound 0.01 µM, first compound 1 µM); 93.2% (second compound 0.01 µM, first compound 3.16 µM); 4% (second compound 0.01 µM, first compound 10 µM). In addition, the viability, T/C (second compound 0.0316 µM, first compound 0.0316 µM) is 73.1%; the viability, T/C (second compound 0.0316 µM, first compound 0.1 µM) was 71.5%; the viability, T/C (second compound 0.0316 µM, first compound 0.316 µM) is 73.6%; the viability, T/C (second compound 0.0316 µM, first compound 1 µM) is 64.8%; the viability, T/C (second compound 0.0316 µM, first compound 3.16 µM) was 71.4%; the viability, T/C (second compound 0.0316 µM, first compound 10 µM) was 4.41%. Besides, the viability, T/C under setting [6] is 65.9%; the viability, T/C under setting [7] was 66%; the viability, T/C under setting [8] is 58.7%; the viability, T/C under setting [9] was 64.2%; the viability, T/C under setting [10] was 70.1%; the viability, T/C under setting [11] is 3.35%. The viability, T/C reads like this: under setting [12], 62.9%; under setting [13], 70.4%; under setting [14], 66.3%; under setting [15], 61.7%; under setting [16], 61.9%; under setting [17], 3.28%. Also, the viability, T/C was 60.8% under setting [18]; 60.2% under setting [19]; 54.3% under setting [20]; 51.8% under setting [21]; 41.5% under setting [22]; 4.98% under setting [23].
As for `C=CCn1c(=O)c2cnc(Nc3ccc(N4CCN(C)CC4)cc3)nc2n1-c1cccc(C(C)(C)O)n1` + CC(C)NCC(C(=O)N1CCN(c2ncnc3c2C(C)CC3O)CC1)c1ccc(Cl)cc1, the IC50 was 114 nM under setting [1]; under 31.6 nM under setting [2]; under 31.6 nM under setting [3]; under 31.6 nM under setting [4]; under 31.6 nM under setting [5]. The viability, T/C was 73.4% under setting [6]; 48.6% under setting [7]; 42.4% under setting [8]; 20.5% under setting [9]; 19.6% under setting [10]; 21.1% under setting [11]. The viability, T/C runs as follows: under setting [12], 41.3%; under setting [13], 31.3%; under setting [14], 15.4%; under setting [15], 14.1%; under setting [16], 13.8%; under setting [17], 17.2%. The viability, T/C reads like this: under setting [18], 20.4%; under setting [19], 16.2%; under setting [20], 10.6%; under setting [21], 9.67%; under setting [22], 9.62%; under setting [23], 11.5%. Further, the viability, T/C was 14.3% under setting [24]; 11% under setting [25]; 8.81% under setting [26]; 7.7% under setting [27]; 8.01% under setting [28]; 7.89% under setting [29]. In addition, the viability, T/C reads like this: under setting [30], 13.1%; under setting [31], 11.7%; under setting [32], 8.4%; under setting [33], 6.86%; under setting [34], 7.49%; under setting [35], 7.22%.
With `Cn1ncnc1[C@H]1c2n[nH]c(=O)c3cc(F)cc(c23)N[C@@H]1c1ccc(F)cc1`, the viability, T/C is, setting by setting: (compound 0.000316 µM) 96.7% and 95.8%; (compound 0.001 µM) 87.8% and 95.3%; (compound 0.00316 µM) 74.8% and 63%; (compound 0.01 µM) 53.3% and 58.5%; (compound 0.0316 µM) 43.7% and 50.4%; (compound 0.1 µM) 43.8% and 39%. Further, where the note is “curve of compound”, the IC50 was 16.3 nM and 19.1 nM.
In the case of `Cn1ncc(Cl)c1-c1cc(C(=O)NC(CN)Cc2cccc(F)c2)sc1Cl` (stereo unspecified), the viability, T/C is 89.7% and 88.1% (compound 0.0316 µM); 62.9% and 60.5% (compound 0.1 µM); 43.6% and 36.2% (compound 0.316 µM); 23% and 19.2% (compound 1 µM); 17.9% and 16.2% (compound 3.16 µM); 0.14% and 0.16% (compound 10 µM). Besides, the IC50 (curve of compound) is 212 nM and 165 nM.

Usually IC50 stands for the concentration at which inhibition is half-maximal. Broadly, the viability, T/C is the ratio of treated to control.
